In patent US4728733A, “C-3' thiadiazinyl cephalosporin analogs” (American Home Products Corporation, priority 1985, dated 1988):
In brackets after ≈: the same amount, converted by molar mass. Where a name gives a salt, the structure may show the parent alone.

Experiments:
Assay type in all cases: cell-based
[1] = tested on: Pseudomonas aeruginosa ATCC 27853; experiment: Antibacterial activity, MIC, procedure A (broth dilution); conditions: ATCC27853
Experimental: (§1) The compounds of the invention are tested for their antibacterial activity. The test can be carried out in two ways:
(§2) A. The organisms used in the test comprise the following: Staphylococcus aureus (penicillin-sensitive and resistant), Pseudomonas aeruginosa, Escherichia coli, […], Bordetella bronchiseptica, Proteus vulgaris, P. mirabilis, Acinetobacter calcoaceticus.
(§3) Test organisms may be added or deleted in order to reflect current clinical patterns of antibiotic susceptibility or shifts in pathogenic potential.
(§4) Stock solution of appropriate medium (e.g. Mueller-Hinton Broth) is sterilized. Starting at a predetermined concentration (e.g. 250 μg/ml), two-fold dilutions are made with the Dynatech Automatic Diluter in a Microtiter plate of 8 rows of 12 wells each in which 11 wells in each row contain 50 μl of medium (e.g. Mueller-Hinton Broth) and the 12th well contains in 100 μl an aliquot of the compound to be tested. The diluted plates are inoculated using the Dynatech Automatic Inoculator which delivers the final inoculum (e.g. 10^5 cfu/ml of a seven-hour culture which has been incubated at 35° C.).
(§5) Plates are sealed with tape and incubated (e.g. 18 hours at 35° C.).

[2] = tested on: Serratia marcescens ATCC 13880; experiment: as above; conditions: ATCC13880
Experimental: as §1, §2, §3, §4, §5

[3] = tested on: Proteus vulgaris A 84354 1; experiment: as above; conditions: A843541
Experimental: as §1, §2, §3, §4, §5

[4] = tested on: Enterobacter cloacae ATCC 13047; experiment: as above; conditions: ATCC13047
Experimental: as §1, §2, §3, §4, §5

[5] = tested on: Staphylococcus aureus ATCC 29213; experiment: as above; conditions: ATCC29213
Experimental: as §1, §2, §3, §4, §5

[6] = tested on: Streptococcus faecalis ATCC 29212; experiment: as above; conditions: Enterococcus faecalis, ATCC29212
Experimental: as §1, §2, §3, §4, §5

[7] = tested on: Klebsiella pneunomiae KL-1; experiment: as above; conditions: KL1
Experimental: as §1, §2, §3, §4, §5

[8] = tested on: Escherichia coli ATCC 25922; experiment: as above; conditions: ATCC25922
Experimental: as §1, §2, §3, §4, §5

[9] = tested on: Pseudomonas aeruginosa ATCC 27853; experiment: Antibacterial activity, MIC, procedure B (agar dilution); conditions: ATCC27853
Experimental: as §1
(§6) B. The organisms used in the test comprise the following: Staphylococcus aureus (penicillin-sensitive and resistant), Pseudomonas aeruginosa, Escherichia coli, […], Bordetella bronchiseptica, Proteus vulgaris, P. mirabilis, Acinetobacter calcoaceticus.
as §3
(§7) Organisms are normally grown for 18 hours in Brain Heart Infusion at 35° C. Cultures are adjusted with saline to MacFarland No. 1.5 standard prior to use.
(§8) Stock concentrations (e.g. 2,5000 μg or units per ml) are prepared in a suitable vehicle. Two-fold dilutions are made. One ml quantities of each dilution are incorporated in 9 ml of the appropriate agar (e.g. Seed) in sterile Petri plates. The hardened surface is inoculated with test organisms by use of a Steers replicating device. The plates are incubated (e.g. 18 hours at 35° C.) and activity is determined.

[10] = tested on: Serratia marcescens ATCC 13880; experiment: as above; conditions: ATCC13880
Experimental: as §1, §6, §3, §7, §8

[11] = tested on: Proteus vulgaris A 84354 1; experiment: as above; conditions: A843541
Experimental: as §1, §6, §3, §7, §8

[12] = tested on: Enterobacter cloacae ATCC 13047; experiment: as above; conditions: ATCC13047
Experimental: as §1, §6, §3, §7, §8

[13] = tested on: Staphylococcus aureus ATCC 29213; experiment: as above; conditions: ATCC29213
Experimental: as §1, §6, §3, §7, §8

[14] = tested on: Streptococcus faecalis ATCC 29212; experiment: as above; conditions: Enterococcus faecalis, ATCC29212
Experimental: as §1, §6, §3, §7, §8

[15] = tested on: Klebsiella pneunomiae KL-1; experiment: as above; conditions: KL1
Experimental: as §1, §6, §3, §7, §8

[16] = tested on: Escherichia coli ATCC 25922; experiment: as above; conditions: ATCC25922
Experimental: as §1, §6, §3, §7, §8

**Q.** Which results are given for CO/N=C(\C(=O)N[C@@H]1C(=O)N2C(C(=O)OC(C)(C)C)=C(CN3C(=O)c4ccccc4NS3(=O)=O)CS[C@H]12)c1csc(N)n1 [Example 2 B, (6R,7R)-7-[[(Z)-(2-Amino-4-thiazolyl)(methoxyimino)acetyl]amino]-3-[(1,4-dihydro-4-oxo-3H-2,1,3-benzothiadiazin-3-yl)methyl]-8-oxo-5-thia-1-azabicyclo[4.2.0]oct-2-ene-2-carboxylic acid 1,1-dimethylethyl ester, S^3, S^3-dioxide]?
**A.** MIC [1]: 128 mg/L (≈ 197 µM); MIC [2]: 64 mg/L (≈ 98.5 µM); MIC [3]: 1 mg/L (≈ 1.54 µM); MIC [4]: 64 mg/L (≈ 98.5 µM); MIC [5]: 64 mg/L (≈ 98.5 µM); MIC [6]: 128 mg/L (≈ 197 µM); MIC [7]: 4 mg/L (≈ 6.16 µM); MIC [8]: 8 mg/L (≈ 12.3 µM)

**Q.** For CO/N=C(\C(=O)N[C@@H]1C(=O)N2C(C(=O)OC(C)(C)C)=C(CN3C(=O)C(C#N)=CNS3(=O)=O)CS[C@H]12)c1csc(N)n1 [Example 1 B, (6R,7R)-7-[[(Z)-(2-Amino-4-thiazolyl)(methoxyimino)acetyl]amino]-3-[(4-cyano-3,6-dihydro-3-oxo-2H-1,2,6-thiadiazin-2-yl)methyl]-8-oxo-5-thia-1-azabicyclo[4.2.0]oct-2-ene-2-carboxylic acid 1,1-dimethylethyl ester S^3, S^3-dioxide], which MIC [9] is on record?
**A.** Its MIC is 256 mg/L (≈ 410 µM).

**Q.** And the MIC [10]?
**A.** Its MIC is 32 mg/L (≈ 51.2 µM).

**Q.** What about the MIC [11] of the same molecule?
**A.** Its MIC is 0.25 mg/L (≈ 0.4 µM).

**Q.** And the MIC [12]?
**A.** The MIC was 64 mg/L (≈ 102 µM).

**Q.** And the MIC [13]?
**A.** The MIC was 64 mg/L (≈ 102 µM).

**Q.** And the MIC [14]?
**A.** The MIC was 256 mg/L (≈ 410 µM).

**Q.** And the MIC [15]?
**A.** The MIC was 1 mg/L (≈ 1.6 µM).

**Q.** And the MIC [16]?
**A.** Its MIC is 2 mg/L (≈ 3.2 µM).

**Q.** Which MIC [1] does the source give for CO/N=C(\C(=O)N[C@@H]1C(=O)N2C(C(=O)O)=C(CN3C(=O)c4ccccc4NS3(=O)=O)CS[C@H]12)c1csc(N)n1 [Example 2 C, (6R,7R)-7-[[(Z)-(2-Amino-4-thiazolyl)(methoxyimino)acetyl]amino]-3-[(1,4-dihydro-4-oxo-3H-2,1,3-benzothiadiazin-3-yl)methyl]-8-oxo-5-thia-1-azabicyclo[4.2.0]oct-2-ene-2-carboxylic acid S^3, S^3-dioxide, trifluoroacetate salt] here?
**A.** The MIC was 128 mg/L.

**Q.** And the MIC [2]?
**A.** Its MIC is 16 mg/L.

**Q.** And the MIC [3]?
**A.** The MIC was 0.25 mg/L.

**Q.** And the MIC [4]?
**A.** The MIC was 64 mg/L.

**Q.** And the MIC [5]?
**A.** Its MIC is 32 mg/L.

**Q.** And the MIC [6]?
**A.** The MIC was 128 mg/L.

**Q.** What about the MIC [7] of the same molecule?
**A.** Its MIC is 2 mg/L.

**Q.** And the MIC [8]?
**A.** The MIC was 4 mg/L.

**Q.** Which results are given for CO/N=C(\C(=O)N[C@@H]1C(=O)N2C(C(=O)O)=C(CN3C(=O)C(C#N)=CNS3(=O)=O)CS[C@H]12)c1csc(N)n1 [Example 1 C, (6R,7R)-7-[[(Z)-(2-Amino-4-thiazolyl)(methoxyimino)acetyl]amino]-3-[(4-cyano-3,6-dihydro-3-oxo-2H-1,2,6-thiadiazin-2-yl)methyl]-8-oxo-5-thia-1-azabicyclo[4.2.0]oct-2-ene-2-carboxylic acid, S^3, S^3-dioxide, trifluoroacetate salt]?
**A.** MIC [9]: 256 mg/L; MIC [10]: 8 mg/L; MIC [11]: 1 mg/L; MIC [12]: 32 mg/L; MIC [13]: 32 mg/L; MIC [14]: 128 mg/L; MIC [15]: 0.125 mg/L; MIC [16]: 1 mg/L
